# Reference: article PMC4891657, “Orexin 2 Receptor Antagonism is Sufficient to Promote NREM and REM Sleep from Mouse to Man” (Scientific Reports, 2016)
# “And” between values parts separate entries of the source, which are not always exact repeats. Equal entries are not always repeated.
# Columns and labels:
# [1] = tested on: sleep/wake stages; test: Polysomnography in telemetered wild-type and OX2R knockout mice; type: in vivo, mouse; conditions: 30 mg/kg oral
# Description: Polysomnography (PSG) responses to MK-1064 (30 mg/kg) were evaluated following oral administration during the late active phase (administered at Zeitgeber time [ZT] 20:00) either in wild-type or OX2R knockout telemetered mice.
# (a) The mean time spent in active wake, light sleep (LS), SWS, and REM sleep during 30-min intervals was determined in wild-type (left panel; n = 5) and OX2R knockout (right panel; n = 7) mice following administration of MK-1064 30 mg/kg (open circles) relative to vehicle (20% vitamin E TPGS, orally; closed circles) during the late active phase (ZT: 20:00). Time points at which significant differences exist between vehicle and MK-1064 responses are indicated by grey vertical lines (*, **, ***p < 0.05, 0.01, 0.001, respectively; linear mixed-effects model for repeated measures).
# In male wild-type and Hcrtr1 and 2 homozygous, double knockout mice (Taconic Farms, Germantown, NY), MK-1064 or vehicle was administered during the late active phase (ZT: 20:00, 4 hours before lights on). The effect of compound treatment was assessed using a counterbalanced crossover design in which all animals were alternately treated with drug and vehicle daily for 5 consecutive days with a 2-day intervening washout period. In both mice and rats, the mean time in active wake, LS, SWS and REM sleep was determined for each 30-minute interval. The level of significance for the differences between mean time spent in each stage between the vehicle- and compound-treated groups was determined by a linear mixed-effects model for repeated measures applied t-test, and mean within-subject change relative to vehicle over 2 hours following dosing was analyzed using within-subject ANOVA to determine main effects and one sample t-test to identify significant changes relative to vehicle.
# [2] = biological target: T1, OX2R (Homo sapiens, UniProt O43614); type: in vivo, transgenic rats expressing human Hcrtr2; set-up: from tissue; host or cells: brain tissue lysate of male transgenic rats expressing human Hcrtr2 cDNA under the rat enolase promoter
# T1 sequence (O43614 1-444): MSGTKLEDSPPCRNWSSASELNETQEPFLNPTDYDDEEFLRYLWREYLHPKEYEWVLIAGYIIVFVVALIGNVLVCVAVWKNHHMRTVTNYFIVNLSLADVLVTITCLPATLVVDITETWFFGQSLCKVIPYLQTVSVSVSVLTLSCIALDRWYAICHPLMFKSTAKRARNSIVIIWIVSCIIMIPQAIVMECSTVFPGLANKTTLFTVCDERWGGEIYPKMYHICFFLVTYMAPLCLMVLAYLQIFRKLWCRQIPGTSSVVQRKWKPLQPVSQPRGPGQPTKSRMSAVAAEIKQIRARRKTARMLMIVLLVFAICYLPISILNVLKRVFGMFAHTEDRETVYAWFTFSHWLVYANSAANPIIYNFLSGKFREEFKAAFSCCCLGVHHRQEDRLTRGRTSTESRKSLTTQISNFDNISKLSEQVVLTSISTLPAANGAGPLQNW
# Text: OX2R occupancy in transgenic rats expressing human Hcrtr2 cDNA via the rat enolase promoter in radioligand-binding displacement assays have been described previously. […] Normalized curves where the maximum occupancy value was defined as 100% relative to maximal observed plasma were constructed by fitting data to a one-site binding (hyperbola) curve (GraphPad Prism® v. 6.04, San Diego, CA, USA).
# [3] = set-up: method as in PMID 24376006; conditions: dogs ref 29; cited from earlier work
# [4] = tested on: sleep/wake stages; test: Polysomnography in telemetered Sprague-Dawley rats; type: in vivo, rat
# Description: MK-1064 promoted both REM and NREM sleep in telemetered rats in a time-of-day-dependent manner.
# Figure 2 MK-1064 dose-dependently promotes both NREM and REM sleep during the active phase in rats. Mean time in active wake, light sleep (LS), SWS, and REM sleep in adult Sprague-Dawley rats monitored for 2 hours post-dose. MK-1064 (5, 10, or 20 mg/kg) or vehicle (20% vitamin E TPGS, orally) was administered in a balanced crossover design such that each animal received drug and vehicle treatments (7 consecutive days). […] Mean within-subject change relative to vehicle ± SEM is shown (*, ***p < 0.05 < 0.001, respectively; one sample t-test for repeated measures compared with vehicle).
# The mean time spent in sleep stages was determined in radio-telemetry–implanted mice, rats, and dogs, as described previously. Continuous PSG recordings were performed following oral MK-1064 or vehicle (20% vitamin E d-alpha tocopheryl polyethylene glycol 1000 succinate [TPGS]) administration. In rodents, electrocorticogram (ECoG) and electromyogram (EMG) and locomotor activity measured via radio-telemetry were scored in 10 second epochs to define light sleep (LS; no movement, moderate EMG tone, theta with <50% delta ECoG [0.5–4 Hz]), slow wave sleep (SWS; no gross movement, reduced EMG, >50% delta ECoG) and rapid eye movement sleep (REM; no movement, little to no EMG activity, primarily theta ECoG [4–7 Hz] activity)[42]. Scored data were then grouped and compiled according to condition (vehicle or compound treatment) averaged over the indicated times (30 minutes or 2 hours) and analyzed statistically as previously described[1][14][40][42] (see below). Canine sleep was scored similarly except that electrooculogram (EOG) recordings were used to define and distinguish REM sleep (high frequency EOG, no locomotor, little to no EMG activity, theta ECoG) from non-REM I (NREM I; little to no EOG activity, no movement, moderate EMG tone, <50% delta ECoG) and NREM II sleep (little to no EOG activity, no gross movement, reduced EMG, >50% delta ECoG), and analyzed as described previously.
# In adult male Sprague-Dawley rats (600 g, Taconic Farms, Germantown, NY), MK-1064 (5, 10, or 20 mg/kg) or vehicle was administered orally in a balanced crossover design such that each subject received drug and vehicle treatments (7 consecutive days). […] Data were analyzed using within-subject ANOVA to determine main effects and one sample t-test to compare with vehicle.
# [5] = wild-type mice, ZT 20:00, vs vehicle
# [6] = rats, 2 hours following treatment vs vehicle
structure (smiles),measurement,setting,value
"COc1ccc(CNC(=O)c2cc(-c3cncc(Cl)c3)cnc2-c2ccccn2)nc1OC [MK-1064, 5″-chloro-N-[(5,6-dimethoxypyridin-2-yl)methyl]-2,2′:5′, 3″-terpyridine-3′-carbo xamide]","changes in wake, SWS and REM in OX2R knockout mice","[1]; OX2R knockout mice, ZT 20:00",absent
same,time following treatment with active wake reduction and significant increases in SWS and REM,"[1]; wild-type mice, ZT 20:00",up to 3.5 hours
same,REM quantitated over 2 hours,[1]; [5],trend toward an increase
same,changes in wake and SWS quantitated over 2 hours,[1]; [5],reached significance
same,OX2R occupancy at which significant reductions in active wake were observed,[2]; in vivo,94% and 97%
same,OX2R occupancy at which changes in REM sleep occurred,[2]; [6],94%
same,OX2R occupancy at which no significant reduction in active wake was observed,[2]; [6],89%
same,OX2R occupancy at which significant SWS changes were induced,[2]; [6],97%
same,minimum plasma concentration needed for sleep-promoting efficacy,[3],0.028 µM
same,"sleep stage changes, late active phase administration","[4]; ZT 23:00, 1 hour prior to inactive period, 20 mg/kg oral",only SWS reached significance
same,active wake during the 2 hours following administration,"[4]; mid-active phase (ZT 17:00), 5, 10 and 20 mg/kg oral, 20 mg/kg significant p < 0.05",dose dependently attenuated active wake
same,SWS during the 2 hours following administration,"[4]; mid-active phase, 20 mg/kg oral",increases in SWS
same,REM sleep during the 2 hours following administration,"[4]; mid-active phase, 10 and 20 mg/kg oral",increases in REM sleep
